Experiment [1] concerns the target T1, hDGKzeta(1-928)-N-His (DGKZ) (Homo sapiens, UniProt Q13574).
T1 construct: hDGKzeta(1-928)-N-His; His (N)
Description: In vitro DGK inhibition assay (ADP-Glo, in house), DGK zeta. In kind it is biochemical. To be noted: isomer A; 2 nM DGK ζ, 50 μM ATP, 125 μM DLG in liposomes, 1 hour reaction; read-out: DGKzeta ADP Glo assay IC50. In short, it runs like this: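 Sf21-expressed full-length His-tagged enzymes (DGKA 4 nM, DGKZ 2 nM) phosphorylated 125 μM DLG in PS/PC liposomes with ATP at 25 μM (DGKA) or 50 μM (DGKZ). After 1 h, ADP was measured by ADP-Glo luminescence. Compounds: 11-point 1:3 dilutions from 10 mM top concentration.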
(ADP-Glo turns the ADP formed in a reaction into a luminescent signal.)

Another experiment deals with DGK ζ kinase (Homo sapiens, UniProt Q13574). The experiment in a line: In vitro DGK inhibition assay (ADP Glo) run by Reaction Biology Corp., DGK zeta. The class given is biochemical. To be noted: isomer A, 2 nM kinase, 50 μM ATP, 500 uM DLG, 10-dose, 3-fold dilution starting at 1 μM, read-out: DGKzeta IC50. As for the experimental part: DGK α and ζ kinase use ATP to phosphorylate the substrate 1,2-dilauroyl-sn-glycerol (DLG). ATP is converted to ADP as a result of this enzymatic reaction.
After the kinase reaction, an ATP-depletion reagent is added to terminate the kinase reaction and deplete any remaining ATP, leaving only ADP. Second, a detection reagent is added to simultaneously convert ADP to ATP and allow the newly synthesized ATP to be converted to light using a coupled luciferase/luciferin reaction.
DGK α and ζ kinase ADP Glo assays were ran by Reaction Biology Corp., 1 Great Valley Parkway, Suite 2, Malverm, 19355, PA, USA. Information provided by the service provider are the following: DGK α and ζ kinases were used at 2 nM final concentration. Reactions were carried out at 50 μM ATP. 500 uM of the substrate DLG (Dilauroyl-sn-glycerol) was used. Compounds were received at 10 mM DMSO stock solution and were tested in 10-dose IC50 duplicate with 3-fold serial dilution starting at 1 μM. A control compound, Calphostin C, was tested in 10-dose IC50 with 3-fold serial dilution starting at 100 μM.

The next experiment relates to primary human T-cells. Description: T-cell proliferation assay (CellTiter-Glo). In kind it is cell-based. To be noted: isomer A; for pEC50: CD3 antibody-stimulated T-cells, CellTiter-Glo after 5 days, read-out: Tcell Proliferation CD3 EC50; for Emax: read-out: Emax proliferation (% activation). In short, it runs like this: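 Expanded primary human T-cells (100k/well) on CD3-antibody-coated or PBS-only plates, 5–6-point doses from 20 or 10 μM top, 0.2% DMSO; proliferation by CellTiter-Glo ATP luminescence after 5 days. Normalized to DMSO (0%) and 20 μM reference compound (100%); EC50 and Emax from sigmoidal fit for CD3 conditions.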
In general terms: ATP-based viability assays read luminescence as a measure of living cells.

The mark [2] stands for this setting: Homo sapiens, T-cell, 120 h, CD3 condition, 5 days, 20 μM reference compound A1 = 100%, DMSO neutral control.

pEC50, pIC50: −log10 of the molar value. Like-named read-outs stand apart in the source and are kept apart here.

T1 sequence (Q13574 whole entry): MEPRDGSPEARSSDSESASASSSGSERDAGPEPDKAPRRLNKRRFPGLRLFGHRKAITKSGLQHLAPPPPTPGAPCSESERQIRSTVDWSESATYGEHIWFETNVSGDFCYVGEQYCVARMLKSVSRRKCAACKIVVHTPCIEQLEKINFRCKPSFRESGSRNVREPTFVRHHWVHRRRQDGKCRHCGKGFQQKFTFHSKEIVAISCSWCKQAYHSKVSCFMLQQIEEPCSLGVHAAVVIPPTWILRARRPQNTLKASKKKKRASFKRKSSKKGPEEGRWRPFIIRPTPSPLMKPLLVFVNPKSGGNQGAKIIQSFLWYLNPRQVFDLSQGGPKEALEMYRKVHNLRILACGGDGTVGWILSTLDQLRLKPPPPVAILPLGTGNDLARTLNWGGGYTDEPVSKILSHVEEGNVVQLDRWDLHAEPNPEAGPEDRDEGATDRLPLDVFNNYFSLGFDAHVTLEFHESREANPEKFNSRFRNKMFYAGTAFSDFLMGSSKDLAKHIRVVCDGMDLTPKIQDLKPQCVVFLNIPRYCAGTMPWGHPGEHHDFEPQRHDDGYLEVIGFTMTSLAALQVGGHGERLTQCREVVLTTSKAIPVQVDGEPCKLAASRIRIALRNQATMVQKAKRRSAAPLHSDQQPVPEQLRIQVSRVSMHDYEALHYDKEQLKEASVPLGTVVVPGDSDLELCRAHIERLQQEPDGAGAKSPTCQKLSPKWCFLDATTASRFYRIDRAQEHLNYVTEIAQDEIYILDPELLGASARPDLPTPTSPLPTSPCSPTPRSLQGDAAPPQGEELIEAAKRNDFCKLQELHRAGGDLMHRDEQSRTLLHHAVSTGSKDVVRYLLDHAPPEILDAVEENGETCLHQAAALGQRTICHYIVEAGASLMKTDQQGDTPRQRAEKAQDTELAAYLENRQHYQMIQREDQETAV
DGK ζ kinase, sequence (Q13574 whole entry): as above

Turning to “2-methyl-2-[5-[(3S)-3-amino-5,5,7-trifluoro-2-oxo-1-[[4-(trifluoromethoxy)phenyl]methyl]-3,4-dihydro-1-benzazepin-8-yl]-1,3,4-oxadiazol-2-yl]propanenitrile and 2-methyl-2-[5-[(3R)-3-amino-5,5,7-trifluoro-2-oxo-1-[[4-(trifluoromethoxy)phenyl]methyl]-3,4-dihydro-1-benzazepin-8-yl]-1,3,4-oxadiazol-2-yl]propanenitrile [Example 2]”, the pIC50 (as a rule, the IC50 on a negative log10 scale, so that one unit is a factor of ten) was 5.74 in experiment [1] and 7.66 on DGK ζ kinase. The pEC50 in the experiment with primary human T-cells was 6.50. The “Emax proliferation (% activation)” value with primary human T-cells (CD3 condition, 5 days, 20 μM reference compound A1 = 100%, DMSO neutral control) is 161 % activation.
Regarding `CC(C)(c1nnc(-c2cc3c(cc2F)C(F)(F)CC(N)C(=O)N3Cc2ccc(Oc3ccccc3)cc2)o1)S(C)(=O)=O` (racemic) [Example 5, (3S)-3-amino-5,5,7-trifluoro-8-[5-(1-methyl-1-methylsulfonyl-ethyl)-1,3,4-oxadiazol-2-yl]-1-[(4-phenoxyphenyl)methyl]-3,4-dihydro-1-benzazepin-2-one and (3R)-3-amino-5,5,7-trifluoro-8-[5-(1-methyl-1-methylsulfonyl-ethyl)-1,3,4-oxadiazol-2-yl]-1-[(4-phenoxyphenyl)methyl]-3,4-dihydro-1-benzazepin-2-one], the values for the pIC50 (in experiment [1]; on DGK ζ kinase) were 5.62 and 7.24, respectively. Further, in the experiment with primary human T-cells (Homo sapiens, T-cell, 120 h), the pEC50 is 6.16. For the same molecule, the Emax in the experiment with primary human T-cells (setting [2]) amounted to 249%.
Consider `CC(C)(C#N)c1nnc(-c2cc3c(cc2F)C(F)(F)CC(N)C(=O)N3Cc2ccc(-n3cc(C(F)(F)F)cn3)cc2)o1` (racemic) [Example 33, 2-[5-[(3S)-3-amino-5,5,7-trifluoro-2-oxo-1-[[4-[4-(trifluoromethyl)pyrazol-1-yl]phenyl]methyl]-3,4-dihydro-1-benzazepin-8-yl]-1,3,4-oxadiazol-2-yl]-2-methyl-propanenitrile and 2-[5-[(3R)-3-amino-5,5,7-trifluoro-2-oxo-1-[[4-[4-(trifluoromethyl)pyrazol-1-yl]phenyl]methyl]-3,4-dihydro-1-benzazepin-8-yl]-1,3,4-oxadiazol-2-yl]-2-methyl-propanenitrile], for which the pIC50 in experiment [1] was 5.77; on DGK ζ kinase, 7.10. Also, the pEC50 in the experiment on primary human T-cells (Homo sapiens, T-cell, 120 h) was 7.01. Also, the Emax in the experiment on primary human T-cells (setting [2]) amounted to 128%.
`CC(C)(C)c1nnc(-c2cc3c(cc2F)C(F)(F)C[C@@H](N)C(=O)N3Cc2ccc(OC3CCCC3)cc2)o1` (single isomer, unassigned) [Example 7]: the results for the pIC50 (in experiment [1]; at DGK ζ kinase) were 5.76 and 7.31, respectively. Moreover, the pEC50 with primary human T-cells (Homo sapiens, T-cell, 120 h) is 6.90. The Emax in the experiment with primary human T-cells (setting [2]) turned out to be 110%.
`COc1ccc(-c2ccc(CN3C(=O)[C@H](N)CC(F)(F)c4cc(F)c(-c5nnc(C(C)(C)C#N)o5)cc43)cc2)cc1` (single isomer, unassigned) [Example 9]: the pIC50 in experiment [1] was 5.63; on DGK ζ kinase, 7.49. Also, the pEC50 in the experiment on primary human T-cells (Homo sapiens, T-cell, 120 h) is 6.57. Also, the Emax with primary human T-cells (setting [2]) stood at 114%.
The corresponding values for `COc1ccc(-c2ccc(CN3C(=O)[C@H](N)CC(F)(F)c4cc(F)c(-c5nnc(C(C)(C)S(C)(=O)=O)o5)cc43)cc2)cc1` (single isomer, unassigned) [Example 10] are 4.94, 5.98, 6.42 and 76%.
The corresponding values for `CC(C)(C#N)c1nnc(-c2cc3c(cc2F)C(F)(F)C[C@@H](N)C(=O)N3Cc2ccc(-c3ccc(C(F)(F)F)cn3)cc2)o1` (single isomer, unassigned) [Example 12] are 5.54, 7.14, 6.39 and 152%.
For `CC(F)(F)c1ccc(-c2ccc(CN3C(=O)[C@H](N)CC(F)(F)c4cc(F)c(-c5nnc(C(C)(C)C#N)o5)cc43)cc2)nc1` (single isomer, unassigned) [Example 37], the pIC50 is 5.55 in experiment [1] and 6.87 on DGK ζ kinase. In addition, the pEC50 with primary human T-cells (Homo sapiens, T-cell, 120 h) is 6.67. Also, in the experiment on primary human T-cells (setting [2]), the Emax is 138%.

The values are drawn from patent US20250236614A1, “BICYCLIC TETRAHYDROAZEPINE DERIVATIVES” (Hoffmann-La Roche Inc., priority 2022, published 2025).
